PMC11088557 (Clinical Drug Investigation, 2024)
“And” between values parts separate entries of the source, which are not always exact repeats. Equal values may be shown once.

Key:
[1] = combination vs MCC alone
[2] = cited from earlier work
CYP3A4 = settings: cited from earlier work
CYP2C9 = settings: in vitro study; cited from earlier work
[3] = viloxazine ER 900 mg qd, steady state
[4] = cited from earlier work; remark: listed apart in the source
CYP2C8 = settings: in vitro study; cited from earlier work
[5] = viloxazine ER 900 mg/day from Day 3; Day 4; p values > 0.05
CYP2D6 = settings: cited from earlier work
CYP1A2 = settings: cited from earlier work
CYP2C19 = settings: in vitro study; cited from earlier work
CYP2B6 = settings: published in vitro study; cited from earlier work

Row | Structure (SMILES) | prolongation of median Tmax with viloxazine ER vs MCC alone [1] | change in Cmax when coadministered with paroxetine [2] | increase in AUC when coadministered with paroxetine [2] | ki (CYP3A4; in vitro, [midazolam]) | in vitro inhibition of CYP3A4/5 (CYP3A4; published in vitro study) | in vitro inhibition of CYP2C9 (CYP2C9) | AUC24 higher in CYP2D6 PMs than EMs [3] | Cmax higher in CYP2D6 PMs than EMs [3] | Cmin higher in CYP2D6 PMs than EMs [3] | 5-hydoxyviloxazine metabolites, share of the metabolized fraction of the drug [4] | dose excreted unchanged [4] | in vitro inhibition of CYP2C8 (CYP2C8) | attainment of steady state [5] | ki (CYP2D6; in vitro, [dextromethorphan]) | in vitro inhibition of CYP2D6 (CYP2D6; published in vitro study) | ki (CYP1A2; in vitro, [caffeine]) | in vitro inhibition of CYP1A2 (CYP1A2; published in vitro study) | in vitro inhibition of CYP2C19 (CYP2C19) | in vitro inhibition of CYP2B6 (CYP2B6)
1 | COc1ccc2c(c1)[C@]13CCCC[C@@H]1[C@H](C2)N(C)CC3 [Dextromethorphan, dextromethorphan] | 1 h | – | – | – | – | – | – | – | – | – | – | – | – | – | – | – | – | – | –
2 | CCOc1ccccc1OCC1CNCCO1 (stereo not shown) [viloxazine] | – | no changes | < 35% | 26.8 µg/mL | weak inhibitor | no meaningful inhibition | 26% and 25% | 21% | 33% | about 50% | approximately 22% | no meaningful inhibition | second day of dosing | 12.7 µg/mL | weak inhibitor | 0.124 µg/mL | strong, reversible inhibitor | no meaningful inhibition | weak inhibitor
